Laboratory results taken from patent US8551984B2, “Aminopyrimidines as SYK inhibitors” (Merck Sharp & Dohme Corp., priority 2009, dated 2013).

molecular target: recombinant human SYK (GST-hSYK fusion protein) (Homo sapiens, UniProt P43405); assay: biochemical; details: rhSYK Activity (IC50), recombinant human GST-SYK 5 pM, ATP 25 μM, biotinylated substrate peptide 250 nM, HTRF, 10-dose titration
Source text: Homogeneous Time-Resolved Fluorescence (HTRF) Assay for the Recombinant Human SYK Enzyme:

Row | IC50 | SMILES
1 | < 100 nM | Cc1cc(Nc2nccc(C(F)(F)F)n2)cc(-c2cnc([C@@]3(O)CC[C@H](C(=O)O)C(C)(C)C3)s2)c1Br [Example 111, (1S,4R)-4-[5-(2-bromo-3-methyl-5-{[4-(trifluoromethyl)pyrimidin-2-yl]amino}phenyl)-1,3-thiazol-2-yl]-4-hydroxy-2,2-dimethylcyclohexanecarboxylic acid]

same assay, conditions: rhSYK Activity, Table 108A

Row | SMILES | IC50
2 | Cc1cc(Nc2nccc(OCc3cccc4ccnn34)n2)cc(-c2cnc(C3(O)CCC3)s2)c1 [Example 108A-7] | 100 to 1000 nM
3 | Cc1cc(Nc2nccc(OCC#Cc3cncnc3)n2)cc(-c2cnc(C3(O)CCC3)s2)c1 [Example 108A-22] | 100 to 1000 nM
4 | Cc1cc(Nc2nccc(OCCOc3cccc(O)c3)n2)cc(-c2cnc(C3(O)CCC3)s2)c1 [Example 108A-28] | 100 to 1000 nM
5 | Cc1cc(Nc2nccc(OCCCc3cccnc3)n2)cc(-c2cnc(C3(O)CCC3)s2)c1 [Example 108A-29] | < 100 nM
6 | Cc1cc(Nc2nccc([S+](C)[O-])n2)cc(-c2cnc(C3(O)CCC3)s2)c1 (centres unmarked) [Example 108A-38] | < 100 nM
7 | CCCCSc1ccnc(Nc2cc(C)cc(-c3cnc(C4(O)CCC4)s3)c2)n1 [Example 108A-41] | 100 to 1000 nM
8 | Cc1cc(Nc2nccc(SC(C)C)n2)cc(-c2cnc(C3(O)CCC3)s2)c1 [Example 108A-43] | < 100 nM
9 | Cc1cc(Nc2nccc(SCCO)n2)cc(-c2cnc(C3(O)CCC3)s2)c1 [Example 108A-44] | < 100 nM
10 | Cc1cc(Nc2nccc(SCCCO)n2)cc(-c2cnc(C3(O)CCC3)s2)c1 [Example 108A-45] | < 100 nM
11 | Cc1cc(Nc2nccc(SCCCCO)n2)cc(-c2cnc(C3(O)CCC3)s2)c1 [Example 108A-46] | < 100 nM

The next lines start with the values.

Row | IC50 | SMILES
12 | < 100 nM | Cc1cc(Nc2nccc(OCCc3cnn(C)c3)n2)cc(-c2cnc(C3(O)CCC3)s2)c1 [Example 108A-8]
13 | < 100 nM | Cc1cc(Nc2nccc(OCc3ccon3)n2)cc(-c2cnc(C3(O)CCC3)s2)c1 [Example 108A-9]
14 | < 100 nM | Cc1cc(Nc2nccc(OCCn3nccn3)n2)cc(-c2cnc(C3(O)CCC3)s2)c1 [Example 108A-12]
15 | < 100 nM | Cc1cc(Nc2nccc(OCCn3ccnn3)n2)cc(-c2cnc(C3(O)CCC3)s2)c1 [Example 108A-13]
16 | 100 to 1000 nM | Cc1cc(Nc2nccc(OCCNC3CCN(C)CC3)n2)cc(-c2cnc(C3(O)CCC3)s2)c1 [Example 108A-14]
17 | 100 to 1000 nM | Cc1cc(Nc2nccc(OCC3Cc4ccccc4N3)n2)cc(-c2cnc(C3(O)CCC3)s2)c1 (centres unmarked) [Example 108A-15]
18 | < 100 nM | Cc1cc(Nc2nccc(OCc3ccnn3C)n2)cc(-c2cnc(C3(O)CCC3)s2)c1 [Example 108A-16]
19 | < 100 nM | Cc1cc(Nc2nccc(OCCN3CCCNCC3)n2)cc(-c2cnc(C3(O)CCC3)s2)c1 [Example 108A-19]
20 | < 100 nM | Cc1cc(Nc2nccc(OCC3CN(C)CCN3C)n2)cc(-c2cnc(C3(O)CCC3)s2)c1 (centres unmarked) [Example 108A-20]
21 | < 100 nM | Cc1cc(Nc2nccc(OCCc3nnn[nH]3)n2)cc(-c2cnc(C3(O)CCC3)s2)c1 [Example 108A-21]
22 | < 100 nM | Cc1cc(Nc2nccc(OCC3CC(=O)N(C)C3)n2)cc(-c2cnc(C3(O)CCC3)s2)c1 (centres unmarked) [Example 108A-23]
23 | < 100 nM | Cc1cc(Nc2nccc(OCC3(C)CCCNC3)n2)cc(-c2cnc(C3(O)CCC3)s2)c1 (centres unmarked) [Example 108A-24]
24 | < 100 nM | Cc1cc(Nc2nccc(OCCC3CN(C)CCO3)n2)cc(-c2cnc(C3(O)CCC3)s2)c1 (centres unmarked) [Example 108A-25]
25 | < 100 nM | Cc1cc(Nc2nccc(OC(C)CN3CC(C)OC3=O)n2)cc(-c2cnc(C3(O)CCC3)s2)c1 (centres unmarked) [Example 108A-27]
26 | < 100 nM | Cc1cc(Nc2nccc(OCCN3CCCC3=O)n2)cc(-c2cnc(C3(O)CCC3)s2)c1 [Example 108A-30]
27 | < 100 nM | Cc1cc(Nc2nccc(OCCCCO)n2)cc(-c2cnc(C3(O)CCC3)s2)c1 [Example 108A-31]
28 | < 100 nM | Cc1cc(Nc2nccc(OCCO)n2)cc(-c2cnc(C3(O)CCC3)s2)c1 [Example 108A-34]
29 | < 100 nM | Cc1cc(Nc2nccc(OCCCO)n2)cc(-c2cnc(C3(O)CCC3)s2)c1 [Example 108A-35]
30 | < 100 nM | CCOc1ccnc(Nc2cc(C)cc(-c3cnc(C4(O)CCC4)s3)c2)n1 [Example 108A-36]
31 | < 100 nM | Cc1cc(Nc2nccc(OC(C)C)n2)cc(-c2cnc(C3(O)CCC3)s2)c1 [Example 108A-37]
32 | < 100 nM | Cc1cc(Nc2nccc(S(C)(=O)=O)n2)cc(-c2cnc(C3(O)CCC3)s2)c1 [Example 108A-39]
33 | < 100 nM | CCSc1ccnc(Nc2cc(C)cc(-c3cnc(C4(O)CCC4)s3)c2)n1 [Example 108A-40]

same assay, conditions: rhSYK Activity, Table 109

Row | IC50 | SMILES
34 | < 100 nM | CC(=O)N1CCC(Oc2ccnc(Nc3cc(N)cc(-c4cnc(C5(O)CCC5)s4)c3)n2)CC1 [Example 109-6]
35 | 100 to 1000 nM | O=C(Nc1cc(Nc2nccc(OC3CCOCC3)n2)cc(-c2cnc(C3(O)CCC3)s2)c1)C(F)(F)F [Example 109-7]
36 | < 100 nM | CC(=O)Nc1cc(Nc2nccc(OC3CCOCC3)n2)cc(-c2cnc(C3(O)CCC3)s2)c1 [Example 109-8]
37 | < 100 nM | Nc1cc(Nc2nccc(OC3CCOCC3)n2)cc(-c2cnc(C3(O)CCC3)s2)c1 [Example 109-9]
38 | < 100 nM | NC(=O)Nc1cc(Nc2nccc(OC3CCNCC3)n2)cc(-c2cnc(C3(O)CCC3)s2)c1 [Example 109-11]
39 | < 100 nM | Nc1cc(Nc2nccc(OC3CCNCC3)n2)cc(-c2cnc(C3(O)CCC3)s2)c1 [Example 109-12]
40 | < 100 nM | Nc1cc(Nc2nccc(OC3CNC3)n2)cc(-c2cnc(C3(O)CCC3)s2)c1 [Example 109-14]

same assay, conditions: rhSYK Activity, Table 113A

Row | IC50 | SMILES
41 | < 100 nM | COCCOc1ccnc(Nc2cc(C)cc(-c3cnc(C4(O)CCC(C(=O)O)CC4)s3)c2)n1 (centres unmarked) [Example 113A-1]
42 | < 100 nM | COCCCOc1ccnc(Nc2cc(C)cc(-c3cnc([C@]4(O)CC[C@@H](C(=O)O)CC4)s3)c2)n1 [Example 113A-2]
43 | < 100 nM | O=C(O)[C@H]1CC[C@](O)(c2ncc(-c3cc(Cl)cc(Nc4nccc(C(F)(F)F)n4)c3)s2)CC1 [Example 113A-3]
44 | < 100 nM | Cc1cc(Nc2nccc(C)n2)cc(-c2cnc(C3(O)CCC(C(=O)O)C(C)C3)s2)c1 (centres unmarked) [Example 113A-4]
45 | < 100 nM | COC(=O)C1CCC(O)(c2ncc(-c3cc(C)cc(Nc4nccc(C)n4)c3)s2)CC1C (centres unmarked) [Example 113A-8]
46 | 100 to 1000 nM | COC(=O)C1CCC(O)(c2ncc(-c3cc(C)cc(Nc4nccc(C)n4)c3)s2)CC1C (centres unmarked) [Example 113A-9]
47 | < 100 nM | COC(=O)C1CCC(O)(c2ncc(-c3cc(C)cc(Nc4nccc(C)n4)c3)s2)CC1C (centres unmarked) [Example 113A-10]
48 | < 100 nM | COC(=O)C1CCC(O)(c2ncc(-c3cc(C)cc(Nc4nccc(C)n4)c3)s2)CC1C (centres unmarked) [Example 113A-11]
49 | 100 to 1000 nM | COC(=O)C1CCC(O)(c2ncc(-c3cc(C)cc(Nc4nccc(C)n4)c3)s2)CC1C (centres unmarked) [Example 113A-12]
50 | 100 to 1000 nM | COC(=O)C1CCC(O)(c2ncc(-c3cc(C)cc(Nc4nccc(C)n4)c3)s2)CC1C (centres unmarked) [Example 113A-13]
51 | < 100 nM | CCc1ccnc(Nc2cc(C)cc(-c3cnc(C4(O)CCC(C(=O)O)C(C)C4)s3)c2)n1 (centres unmarked) [Example 113A-14]
52 | < 100 nM | COc1ccnc(Nc2cc(C)cc(-c3cnc([C@@]4(O)CC[C@H](C(=O)O)[C@H](C)C4)s3)c2)n1 [Example 113A-16]
53 | < 100 nM | Cc1cc(Nc2ncc(F)c(C)n2)cc(-c2cnc([C@]3(O)CC[C@@H](C(=O)O)[C@@H](C)C3)s2)c1 [Example 113A-19]
